Results on 1 compound are retold here after patent publication US12673029B2, “Nanodelivery system based on globulin-1 S allele, preparation method therefor and use thereof” (Zhejiang Gongshang University, priority 2022, dated 2026).

Data set [1] can be described thus: Light stability assay under UV irradiation (absorbance at 426 nm). Type of data set: physicochemical. Particulars: 30 W UV lamp. As for the experimental part:
0.93 mg of curcumin and 14.96 mg of wheat GSA protein-curcumin composite nanoparticles were accurately weighed to be separately put in petri dishes, and were irradiated at a close range with a 30 W UV lamp, sampling was performed at 0 h, 1 h, 2 h, 3 h, 4 h, 5 h, and 6 h, the samples were separately dissolved with a […], a volume was made up to a constant volume of 250 mL, 10 mL of the prepared solution was taken, and an absorbance at 426 nm was measured, wherein the absorbance was measured for three times to take an average.

For data set [2], the system named is Dendritic cells DC2.4. Description: Biological activity assay in OVA-sensitized dendritic cells DC2.4 (qRT-PCR of pro-inflammatory cytokines). Type of data set: cell-based. Conditions: DC2.4 cells sensitized with OVA, cultured 24 hours. As for the experimental part: Dendritic cells DC2.4 were sensitized by treatment with ovalbumin (OVA) and cultured for 24 hours with curcumin and wheat GSA protein-curcumin composite nanoparticles as experimental groups, respectively, and relevant experiments were conducted. Total RNA was extracted from the cells, and subjected to reverse transcription according to the instructions to obtain cDNA of relevant cells, and a quantitative reverse transcription polymerase chain reaction (qRT-PCR) was carried out by using a real-time fluorescence quantitative PCR system.
(In qPCR the cycle at which signal appears reflects the starting amount.)

Data set [3] concerns wheat GSA protein (globulin-1 S allele). Description: Fluorescence quenching determination of the binding force of wheat GSA protein to curcumin. Conditions: for KSV (Stern-Volmer dynamic quenching constant): GSA 1 μM, curcumin 1-10 μM. As for the experimental part:
A wheat GSA protein solution and a curcumin solution were mixed in a certain ratio (1:1, 1:2, 1:5, 1:10) at different temperatures (298 K, 303 K, 310 K) for 2 hours. The final concentration of GSA was 1 μM, wherein the molecular weight of GSA was 56.16 KDa and the concentration of curcumin was 1 μM, 2 μM, 5 μM and 10 μM. The excitation spectrum was set at 280 nm, the emission spectrum was from 320 nm to 500 nm, and the recording temperature was 298 K, 303 K, and 310 K.
At an excitation wavelength of 280 nm, tryptophan and tyrosine residues will be excited. Binding of proteins and small molecules will lead to a decrease in fluorescence emission. As the concentration of curcumin increased, the fluorescence intensity decreased constantly and a slight red shift appeared.
Fluorescence quenching can be divided into dynamic quenching and static quenching. A dynamic quenching process can be distinguished by a Stern-Volmer equation: F0/F=1+KSV[Q]=1+Kqτ0[Q] (1)
wherein F0 and F are the GSA fluorescence intensity of the system in the absence and presence of curcumin, respectively; [Q] is the concentration of a quencher curcumin; and Kq is a fluorescence quenching rate constant.
Values for a static quenching mechanism, a binding constant and the number of binding sites can be obtained from a […] equation: log[(F0-F)/F]=log(Ka)+n log[Q] (2)
wherein Ka is a binding constant, [Q] is the concentration of curcumin, and n is the number of binding sites. A log-log plot of log[(F0−F)/F] versus log[Q] was made at 298 K, 303 K, and 310 K, respectively, according to the equation, as shown in FIG. 3. Ka and n at different temperatures were obtained from the intercept and slope.
To determine the action force between GSA and curcumin, the temperature-dependent thermodynamic parameters (ΔG, ΔH, and ΔS) were calculated using the following equations: -lnK==−ΔH/RT+ΔS/RΔG=ΔH−TΔS (3) • wherein R is a gas constant (8.314 J/mol*K), and T is the experimental temperature.

`COc1cc(/C=C/C(=O)CC(=O)/C=C/c2ccc(O)c(OC)c2)ccc1O` [curcumin, Curcumin]: the “absorbance at 426 nm after UV irradiation” value in data set [1] (2 h of UV irradiation) is given as 0.606; in data set [1] (5 h of UV irradiation), 0.252; in data set [1] (6 h of UV irradiation), 0.214. The “decrease of absorbance after UV irradiation” value in data set [1] (6 h of UV irradiation) is recorded as 75%. The “alleviating effect on the allergic effect produced by OVA (pro-inflammatory cytokine mRNA such as IL-6)” value in data set [2] is reported as “a certain alleviating effect”. Moreover, the “Kq (fluorescence quenching rate constant)” value in data set [3] (298 K) was 1.3981 10^13 L/mol*s; in data set [3] (303 K), 2.0211 10^13 L/mol*s; in data set [3] (310 K), 3.0636 10^13 L/mol*s. Also, in data set [3] (298 K, 303 K, and 310 K, 120 min), the “Ka value, order of magnitude” value is ~10^6. Moreover, the “Ka (binding constant)” value is given as 8.5822 10^6 L/mol in data set [3] (298 K, 120 min); 15.7797 10^6 L/mol in data set [3] (303 K, 120 min); 16.9238 10^6 L/mol in data set [3] (310 K, 120 min). Also, the “KSV (Stern-Volmer dynamic quenching constant)” value is 1.3981 10^5 L/mol in data set [3] (298 K), 2.0211 10^5 L/mol in data set [3] (303 K) and 3.0636 10^5 L/mol in data set [3] (310 K).
